Data taken from PubChem BioAssay AID330 (DTP/NCI, 2004).
Several values for one entry are separate records, joined by “and”; a condition that tells them apart may be missing. Equal values may be shown once. Inconclusive results and toxic doses are left out.

System: P388 leukemia ip, CD2F1 mice, survival T/C
Experiment: NCI In Vivo Anticancer Drug Screen. Data for tumor model P388 Leukemia (intraperitoneal) in CD2F1 (CDF1) mice
Conditions: endpoint: median survival time, higher = longer survival
In short: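 Mice carrying the transplanted tumor received test compound or vehicle. Survival was recorded in each group, and the value is the treated-group measurement divided by that of the vehicle-treated control group.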

[1] = dose: 50.0 mg/kg/injection, schedule: Q01DX005 (ip), vehicle: saline with Tween-80
[2] = dose: 100.0 mg/kg/injection, schedule: Q01DX005 (ip), vehicle: saline with Tween-80
[3] = dose: 100.0 mg/kg/injection, schedule: Q04DX002 (ip), vehicle: saline with Tween-80
[4] = dose: 12.5 mg/kg/injection, schedule: Q01DX009 (ip), vehicle: Klucel (hydroxypropylcellulose) (HPC)
[5] = dose: 60.0 mg/kg/injection, schedule: Q01DX005 (ip), vehicle: saline
[6] = dose: 120.0 mg/kg/injection, schedule: Q01DX005 (ip), vehicle: saline

CC(=O)Cc1ccc(C)cc1
T/C (dose: 100.0 mg/kg/injection, schedule: Q04DX003 (ip), vehicle: saline with Tween-80): 104 % of control | T/C (dose: 200.0 mg/kg/injection, schedule: Q04DX003 (ip), vehicle: saline with Tween-80): 104 % of control | T/C (dose: 400.0 mg/kg/injection, schedule: Q04DX003 (ip), vehicle: saline with Tween-80): 104 % of control

O=C1N(CCc2ccccc2)CCCS1(=O)=O
T/C [1]: 115 % of control | T/C [2]: 117 % of control

CC(=O)OCC1OC(Nc2[nH]c(=O)nc3occc23)C(OC(C)=O)C(OC(C)=O)C1OC(C)=O (stereo unspecified)
T/C (dose: 100.0 mg/kg/injection, schedule: Q01DX001 (ip), vehicle: saline with Tween-80): 107 % of control | T/C (dose: 200.0 mg/kg/injection, schedule: Q01DX001 (ip), vehicle: saline with Tween-80): 99 % of control | T/C (dose: 400.0 mg/kg/injection, schedule: Q01DX001 (ip), vehicle: saline with Tween-80): 97 % of control

COC(=O)C(=O)c1c(-c2ccc(O)c(OC)c2)[nH]c2[nH]n(-c3ccccc3)c(=O)c2c1=O
T/C (dose: 60.0 mg/kg/injection, schedule: Q01DX005 (ip), vehicle: saline with Tween-80): 100 % of control | T/C (dose: 120.0 mg/kg/injection, schedule: Q01DX005 (ip), vehicle: saline with Tween-80): 109 % of control | T/C (dose: 240.0 mg/kg/injection, schedule: Q01DX005 (ip), vehicle: saline with Tween-80): 88 % of control

O=P(OCC(Br)CBr)(OCC(Br)CBr)OCC(Br)CBr (stereo unspecified)
T/C (dose: 100.0 mg/kg/injection, schedule: Q01DX009 (ip), vehicle: saline with Tween-80): 112 % of control and 114 % of control | T/C (dose: 200.0 mg/kg/injection, schedule: Q01DX009 (ip), vehicle: saline with Tween-80): 106 % of control and 109 % of control | T/C (dose: 400.0 mg/kg/injection, schedule: Q01DX009 (ip), vehicle: saline with Tween-80): 103 % of control and 106 % of control | T/C (dose: 800.0 mg/kg/injection, schedule: Q01DX009 (ip), vehicle: saline with Tween-80): 109 % of control and 94 % of control

O=[N+]([O-])c1ccc(C=C2C=CN(CCO)C=C2)cc1
T/C [1]: 100 % of control | T/C [2]: 108 % of control

COc1c(-c2ccccc2)oc2c(ccc3occc32)c1=O
T/C (dose: 12.5 mg/kg/injection, schedule: Q01DX005 (ip), vehicle: Klucel (hydroxypropylcellulose) (HPC)): 104 % of control | T/C (dose: 25.0 mg/kg/injection, schedule: Q01DX005 (ip), vehicle: Klucel (hydroxypropylcellulose) (HPC)): 99 % of control | T/C (dose: 50.0 mg/kg/injection, schedule: Q01DX005 (ip), vehicle: Klucel (hydroxypropylcellulose) (HPC)): 99 % of control | T/C (dose: 100.0 mg/kg/injection, schedule: Q01DX005 (ip), vehicle: Klucel (hydroxypropylcellulose) (HPC)): 87 % of control | T/C (dose: 200.0 mg/kg/injection, schedule: Q01DX005 (ip), vehicle: Klucel (hydroxypropylcellulose) (HPC)): 88 % of control

CCc1ccc2c(c1OCOC)CCC2
T/C [3]: 100 % of control | T/C (dose: 200.0 mg/kg/injection, schedule: Q04DX002 (ip), vehicle: saline with Tween-80): 100 % of control | T/C (dose: 400.0 mg/kg/injection, schedule: Q04DX002 (ip), vehicle: saline with Tween-80): 95 % of control

CCOC(=O)c1ccc(N=C/C(Cl)=C(/Cl)C(=O)O)cc1
T/C (dose: 3.12 mg/kg/injection, schedule: Q01DX009 (ip), vehicle: other): 102 % of control | T/C (dose: 6.25 mg/kg/injection, schedule: Q01DX009 (ip), vehicle: other): 92 % of control | T/C [4]: 92 % of control | T/C (dose: 12.5 mg/kg/injection, schedule: Q01DX009 (ip), vehicle: other): 89 % of control

COc1c(I)c2c(c(OC)c1OC)-c1ccc(OC)c(=O)cc1C(NC(C)=O)CC2 (stereo unspecified)
T/C (dose: 6.25 mg/kg/injection, schedule: Q01DX009 (ip), vehicle: Klucel (hydroxypropylcellulose) (HPC)): 178 % of control | T/C [4]: 167 % of control

CNC(C)Cc1ccccc1 (stereo unspecified) (tested in a mixture with another compound)
T/C (dose: 6.25 mg/kg/injection, schedule: Q01DX005 (ip), vehicle: saline with Tween-80): 112 % of control | T/C (dose: 12.5 mg/kg/injection, schedule: Q01DX005 (ip), vehicle: saline with Tween-80): 103 % of control | T/C (dose: 25.0 mg/kg/injection, schedule: Q01DX005 (ip), vehicle: saline with Tween-80): 104 % of control | T/C [1]: 116 % of control

CC1=C(C)C2C3C(=O)NC(=O)C3C1C1C3C(=O)NC(=O)C3C21 (stereo unspecified)
T/C [5]: 101 % of control | T/C [6]: 101 % of control | T/C (dose: 240.0 mg/kg/injection, schedule: Q01DX005 (ip), vehicle: saline): 100 % of control

CC1(C)C(C(N)=O)C(=O)NC(=O)C1C(N)=O (stereo unspecified)
T/C (dose: 25.0 mg/kg/injection, schedule: Q01DX009 (ip), vehicle: other): 100 % of control | T/C (dose: 50.0 mg/kg/injection, schedule: Q01DX009 (ip), vehicle: other): 100 % of control | T/C (dose: 100.0 mg/kg/injection, schedule: Q01DX009 (ip), vehicle: other): 99 % of control | T/C (dose: 200.0 mg/kg/injection, schedule: Q01DX009 (ip), vehicle: other): 100 % of control | T/C (dose: 400.0 mg/kg/injection, schedule: Q01DX009 (ip), vehicle: other): 105 % of control

C=C1C(=O)OC2/C=C(\C)C(OC(C)=O)C3OC3C(C)(O)CC(OC(=O)/C(C)=C/C)C12 (stereo unspecified)
T/C (dose: 10.0 mg/kg/injection, schedule: Q01DX009 (ip), vehicle: saline with Tween-80): 99 % of control | T/C (dose: 20.0 mg/kg/injection, schedule: Q01DX009 (ip), vehicle: saline with Tween-80): 104 % of control | T/C (dose: 40.0 mg/kg/injection, schedule: Q01DX009 (ip), vehicle: saline with Tween-80): 107 % of control

Brc1ncc2[nH]cnc2n1
T/C [1]: 99 % of control | T/C [2]: 100 % of control

FC(F)(F)c1ccccc1NC(=S)N1CCN(c2ccccc2)CC1
T/C (dose: 50.0 mg/kg/injection, schedule: Q01DX009 (ip), vehicle: gum acacia): 109 % of control | T/C (dose: 100.0 mg/kg/injection, schedule: Q01DX009 (ip), vehicle: gum acacia): 100 % of control | T/C (dose: 200.0 mg/kg/injection, schedule: Q01DX009 (ip), vehicle: gum acacia): 92 % of control

COc1ccc(NC(SC)=C(C#N)C#N)cc1
T/C (dose: 25.0 mg/kg/injection, schedule: Q04DX002 (ip), vehicle: saline with Tween-80): 99 % of control | T/C (dose: 50.0 mg/kg/injection, schedule: Q04DX002 (ip), vehicle: saline with Tween-80): 100 % of control | T/C [3]: 98 % of control

Cc1oc2ccccc2c(=O)c1CN(CCO)CCO
T/C [5]: 95 % of control | T/C [6]: 101 % of control
